Results as given in ChEMBL document CHEMBL2390945, “Synthesis and characterization of 123I-CMICE-013: a potential SPECT myocardial perfusion imaging agent” (Bioorg Med Chem, 2013).

Legend:
Type in all cases: ADME, organism-based
[1] = Biodistribution in rat liver at 15 mins; details: read-out: Drug uptake
[2] = Biodistribution in rat liver at 60 mins; details: read-out: Drug uptake
Liver [3] = assay: Biodistribution in rat liver at 15 uci, iv measured at 15 mins; details: in vivo, 0.25 h
Liver [4] = assay: Biodistribution in rat liver at 15 uci, iv measured at 60 mins; details: in vivo, 1 h

Work on CC(C)(C)n1ncc(OCc2ccc(CCCC[18F])cc2)c(Cl)c1=O yielded a tissue uptake at 0.25 h [1] of 1.6 %ID/g and a tissue uptake at 1 h [2] of 1.3 %ID/g.

With CC(C)(C)n1ncc(OCc2ccc(COCCF)cc2)c(Cl)c1=O [FLURPIRIDAZ] the Drug uptake (Liver [3]) was 1.4 % ID/g and the Drug uptake (Liver [4]) was 0.9 % ID/g.
